Here are results for 27 compounds from patent publication US7550469B2, “Heterocyclic amide derivatives and their use as dopamine D3 receptor ligands” (Aventis Pharmaceuticals Inc., priority 2001, dated 2009).

For the experiment, the target named is T1, cloned human dopamine D3 receptors (Homo sapiens, UniProt P35462).
T1 construct: expressed in transfected cells; membrane homogenate
In words: [N-Methyl-3H]Spiroperidol binding to cloned human dopamine D3 receptors (Protocol 1). The text has this:
[N-Methyl-^3H]Spiroperidol Binding to Cloned Human Dopamine D3 Receptors
This assay measures the in vitro activity of compounds on cloned human dopamine (D3) receptors and predicts the direct dopamine-blocking properties of putative neuropsychiatric agents at human dopamine D3 receptors.
The D3 gene was isolated from a human striatal cDNA library (Stratagene). The gene was sequenced and sub-cloned into the expression vector RC/RSV (Invitrogen). CHO (Chinese Hamster Ovary) cells were stably transfected with 10 μg of the D3/RSV plasmid using the DOTAP method from Boehringer Mannheim and 72 clones that were G418 resistant were isolated. Using mRNA and binding displacement data a single high expressing clone was identified. This clone was then grown in large batches for the purpose of developing a 96 well format assay.
• 1. One plate (10 cm) with approximately 2-3 million D3 cells per plate is incubated with 1 ml of Trypsin-EDTA at room temperature for ˜2 min or until cells have lifted off plates. Four ml of Ham's F12+10% Fetal Bovine Serum+1% Penicillin/Streptomycin+G418 (400 μg/ml) medium are added to resuspend cells and 1 ml of this is added to each large plate (15 cm) containing 19 ml of the-same medium as mentioned above. • 2. The 5 large plates are incubated at 37° C.+5% CO2 for ˜3 days or until the cells are confluent. • 3. After these plates are confluent, they are split into 10 large plates. Medium is aspirated off, 2 ml of Trypsin-EDTA are added to each plate and plates are incubated at RT for 2 min or until cells have lifted off the plate. Eight ml of the F12 medium (same medium as #1 above) are added to each plate (10 ml total) to resuspend the cells and 5 ml are transferred to the 2 new plates containing 15 ml of the F12 media. • 4. The 10 large plates are incubated at 37° C.+5% CO2 for ˜2 days or until the cells are confluent. • 5. The 10 large plates are split into 60 large plates (using Trypsin-EDTA as #3 except 4 ml of F12 medium are added to resuspend cells and 1 ml is aliquoted to 6 new plates containing 19 ml of F12 medium each). • 6. Plates are incubated at […]+5% CO2 for ˜3 days or until cell are confluent. • 7. The 60 large plates are then split into 60 roller bottles (100-150 million cells/bottle). Medium is aspirated off, 2 ml of Trypsin-EDTA are added to each plate and incubated at RT for ˜2 minutes or until cells have lifted off plates. Eight ml of F12 medium are added to each plate to resuspend cells and the entire 10 ml are added to 1 roller bottle containing 90 ml of the F12 medium. • 8. The 60 roller bottles are immediately placed on their sides and transferred to the roller bottle incubator. They are incubated at 37° C.+5% CO2 for ˜3-5 days. Cells are spun at 30-40% motor speed in the Forma incubator. • 9. Medium is poured off and cells are washed 2× in PBS. • 10. Cells are then scraped off in 20 ml of PBS and the bottles are rinsed again with 5 ml of PBS to remove any remaining cells. Cells are stored on ice before membrane preparation. • 11. The yield for 60 D3 roller bottles has varied from ˜260-500 mg. • Note: All tissue culture reagents are from Gibco-BRL. C. Membrane Preparation
The cells are harvested into 250 ml centrifuge tubes with 100 volumes of cold phosphate buffered saline (PBS) and spun down (1200×G for 10 min at 4° C.). The medium is removed and 100 ml PBS are added to each centrifuge tube, cells are resuspend and spun down again. The PBS is removed and the final pellet is homogenized in an appropriate volume of 10% DMSO with a polytron on ice at a medium setting.
1. 0.5M Tris Buffer, pH 7.7 • a) 44.4 g Tris HCl 26.5 g Tris Base q.s. to 1 Liter (0.5 M Tris buffer, pH 7.7 at 37° C.) • b) make a 1:10 dilution in distilled H2O (0.05 M. Tris buffer, pH 7.7) 2. Tris Buffer Containing Physiological Salts • a) Stock buffer • NaCl 7.014 g • KCl 0.372 g • CaCl2 0.222 g • MgCl2 0.204 g • q.s. To 100 ml with 0.5 M. Tris Buffer • b) Dilute 1:10 in distilled H2O […]

The mark [1] stands for this setting: the 21st table, read-out: D3 Ki.
Setting [2] is: the 16th table, read-out: D3 Ki.
Setting [3] is: the 13th table, unit inferred, read-out: D3Ki.
The mark [4] stands for this setting: the 23rd table, read-out: D3 Ki.

pKi: −log10 of the molar value. Like-named read-outs stand apart in the source and are kept apart here.

T1 sequence (P35462 whole entry): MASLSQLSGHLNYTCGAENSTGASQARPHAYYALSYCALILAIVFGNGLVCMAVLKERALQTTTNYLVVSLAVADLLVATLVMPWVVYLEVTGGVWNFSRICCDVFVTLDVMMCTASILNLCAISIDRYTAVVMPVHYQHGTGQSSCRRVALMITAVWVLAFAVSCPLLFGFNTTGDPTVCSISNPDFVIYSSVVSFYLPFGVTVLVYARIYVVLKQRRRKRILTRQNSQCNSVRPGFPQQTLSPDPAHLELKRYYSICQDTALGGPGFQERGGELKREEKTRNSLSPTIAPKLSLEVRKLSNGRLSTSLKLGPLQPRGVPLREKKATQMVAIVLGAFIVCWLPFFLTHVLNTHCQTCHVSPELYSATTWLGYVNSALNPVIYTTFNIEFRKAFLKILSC

As for `C[C@@H]1CN(c2csc3cc(F)ccc23)C[C@H](C)N1CCCCNC(=O)c1cccnc1Cl` [compound 826948], under setting [1], the pKi was 6.81.
In the case of `COc1ccccc1C(=O)NCCCN1CCCN(c2csc3cc(F)ccc23)CC1` [compound 827141], the pKi is 7.00 (Table 2, read-out: D3K1) and 7.00 under setting [2].
Turning to `C[C@@H]1CN(c2csc3cc(C(F)(F)F)ccc23)C[C@H](C)N1CCCCNC(=O)c1cc2ccccc2o1` [compound 826958], the pKi under setting [1] was 6.83.
In the case of `O=C(NCCCCN1CCN(c2c(-c3ccccc3)sc3cc(F)ccc23)CC1)c1cc2ccccc2s1` [compound 815873], the pKi (Table 2, read-out: D3K1) is 6.58.
Consider `CN(C)c1ccc(C(=O)c2ccccc2C(=O)NCCCCN2CCCN(c3csc4cc(F)ccc34)CC2)cc1` [compound 817263], for which the pKi was 6.48 (Table 2, read-out: D3K1) and 6.48 under setting [2].
Turning to `C[C@@H]1CN(c2csc3cc(C(F)(F)F)ccc23)C[C@H](C)N1CCCCNC(=O)c1ccc(OC(F)(F)F)cc1` [compound 827040], under setting [1], the pKi is 6.78.
Consider `O=C(NC/C=C/CN1CCN(c2csc3cc(C(F)(F)F)ccc23)CC1)c1ccc(OC(F)(F)F)cc1` [compound 827726], for which the pKi (read-out: D3K1) is 7.04.
With `O=C(NCCCCN1CCCN(c2csc3cc(F)ccc23)CC1)c1ccc2[nH]cnc2c1` [S977831], the pKi under setting [3] was 8.73.
Still for that read-out and setting: for `Cn1cccc1C(=O)NCCCCN1CCCN(c2csc3cc(F)ccc23)CC1` [S977828] the value was 8.16.
Take `COc1ccccc1C(=O)NCc1sccc1CN1CCN(c2csc3cc(F)ccc23)CC1` [compound 826302]: the pKi (the 18th table, read-out: D3 Ki) was 7.80.
Consider `O=C(NCCCCN1C2CCC1CC(c1noc3cc(F)ccc13)C2)c1ccc(Br)cc1` (stereo not drawn) [compound 816335], for which, for the setting “the 15th table, read-out: D3 Ki”, the pKi was 6.57.
For the compound `O=C(NCCCCCN1CCN(c2csc3cc(C(F)(F)F)ccc23)CC1)c1cccc(C(F)(F)F)c1` [compound 826770], the pKi is, setting by setting: (read-out: D3K1) 7.85; (the 14th table, read-out: D3 Ki) 7.85.
Regarding `CCCCOC(=O)NCC1CC1CN1CCC(c2noc3ccsc23)CC1` (stereo not drawn) [compound 831696], the pKi (the 25th table, read-out: D3 Ki) was 7.53.
In the case of `O=C(NCC(CO)CCN1CCN(c2csc3cc(C(F)(F)F)ccc23)CC1)c1n[nH]c2ccccc12` (stereo not drawn) [818935ES], the pKi (Table 2, read-out: D3K1) is 6.61.
For the compound `COc1ccc2[nH]c(C(=O)NCCCCN3[C@H](C)CN(c4csc5cc(F)ccc45)C[C@@H]3C)cc2c1` [compound 826960], under setting [1], the pKi is 7.82.
For the compound `CCC1CCC(NCC2CC2CN2CCN(c3cc(C)ccc3C)CC2)CC1` (stereo not drawn) [compound 832265], under setting [4], the pKi is 7.14.
Turning to `C[C@@H]1CN(c2csc3cc(C(F)(F)F)ccc23)C[C@H](C)N1CCCCNC(=O)c1cccc(Cl)c1` [compound 827038], the pKi under setting [1] is 6.81.
As to `O=C(NC/C=C\CN1CCN(c2csc3cc(C(F)(F)F)ccc23)CC1)c1ccc(OC(F)(F)F)cc1` [compound 826348], the pKi (read-out: D3K1) is 7.21.
As to `CC[C@H]1CC[C@H](NCC2(CCN3CCC(c4noc5ccsc45)CC3)CC2)CC1` [compound 832401], the pKi under setting [4] is 6.91.
With `O=C(NCCCCN1CCN(c2n[nH]c3ccsc23)CC1)c1ccc(-c2ccccc2)cc1` [compound 825153], the pKi (the 22nd table, read-out: D3 Ki) is 8.07.
On to `COc1cccc2c(C3CCN(C[C@@H]4C[C@H]4CNCCC(C)(C)C)CC3)noc12` [compound 833433], for which the pKi under setting [4] was 6.95.
Consider `O=C(NCCCCCN1CCCN(c2csc3cc(F)ccc23)CC1)c1ccc2ccccc2c1` [S984490], for which the pKi under setting [3] was 7.81.
As to `COc1cccc(C(=O)NCCCCN2[C@H](C)CN(c3csc4cc(F)ccc34)C[C@@H]2C)c1` [compound 826942], under setting [1], the pKi is 7.24.
Turning to `CCCCS(=O)(=O)NCC1CC1CN1CCN(c2csc3cc(C(F)(F)F)ccc23)CC1` (stereo not drawn) [compound 831636], the pKi (the 24th table, read-out: D3 Ki) was 6.73.
With `O=C(NCCCCN1CCCN(c2csc3cc(F)ccc23)CC1)c1ccc(F)cc1` [S981846], under setting [3], the pKi is 7.57.
As for `O=C(NCCCCN1CCCN(c2csc3cc(C(F)(F)F)ccc23)CC1)c1cccs1` [S980627], the pKi under setting [3] is 7.40.
On the same count and under the same terms, the result for `O=C(NCCCCN1CCCN(c2csc3cc(F)ccc23)CC1)c1cc(C(F)(F)F)cc(C(F)(F)F)c1` [S981844] reads 7.41.
